The values below come from US20220259167A1 (UNIVERSITY HEALTH NETWORK, priority 2019, published 2022).

Broadly, the IC50 is the point on the concentration scale where inhibition reaches its midpoint.

Assay [1] relates to SIM-A9 cells. The assay is described as follows: Anti-inflammation assay: TNF-α production from LPS stimulated SIM-A9 cells (ELISA). The following applies: compound 2.7 μM; LPS stimulated SIM-A9 cells; read-out: TNF-α Inhibition. The assay is classed as cell-based.
Assay [2] deals with biotinylated amyloid-beta(1-42) (bioAbeta42) (Homo sapiens, UniProt P05067). The class given is biochemical.
Sequence of biotinylated amyloid-beta(1-42) (bioAbeta42) (P05067 672-713): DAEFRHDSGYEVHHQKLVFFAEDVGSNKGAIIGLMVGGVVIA
In assay [3] the target is Aβ 1-40 (Homo sapiens, UniProt P05067). The assay is described as follows: Aβ ThT aggregation (fibrillization) assay. The class given is biochemical. The following applies: compound at 100 μM.
Sequence of Aβ 1-40 (P05067 672-711): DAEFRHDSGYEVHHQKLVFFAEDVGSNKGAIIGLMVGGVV
[4] abbreviates: Example 5, ND = inhibition activity not detected over 200 μM, read-out: Inhibition of Aβ oligomerization, μM IC50.
The mark [5] stands for this setting: Example 5, versus DMSO control, read-out: Inhibition of Aβ fibrillization at concentration 100 μM, Inhibition %.
The mark [6] stands for this setting: Example 2, read-out: Anti-Aβ oligomerization IC50.

Several values for one entry are separate records, joined by “and”; a condition that tells them apart may be missing. Identical values can stand only once. Like-named read-outs stand apart in the source and are kept apart here.

For `O=C(O)c1ccc(Cl)cc1NCc1cccs1` [LD3-309, 4-Chloro-2-((thiophen-2-ylmethyl)amino)benzoic Acid], the inhibition at 2.7 µM in assay [1] was determined as 18%.

On to `O=C(O)c1cc(S(=O)(=O)Nc2ccccc2)c(Cl)cc1NCc1ccco1` [SI-W080, 4-Chloro-2-((furan-2-ylmethyl)amino)-5-(N-phenylsulfamoyl) benzoic acid], for which, in assay [2] (setting [4]), the IC50 amounted to 168 ± 29 µM. The inhibition at 100 µM in assay [3] (setting [5]) turned out to be 17.4%.

In the case of `Cc1ccc(CNc2cc(F)ccc2C(O)C(F)(F)F)c(C)c1` (stereo not drawn) [WW-024], the inhibition at 2.7 µM in assay [1] was determined as 11.2%.

In the case of `CNS(=O)(=O)c1cc(CO)c(NCc2ccco2)cc1Cl` [WW109, 2-Chloro-4-((furan-2-ylmethyl)amino)-5-(hydroxymethyl)-N-methylbenzenesulfonamide], the inhibition at 2.7 µM in assay [1] came out at 21%. Besides, in assay [2] (setting [4]), the half-maximal inhibitory concentration (IC50) turned out to be 117 ± 3.95 µM.

For `CNC(=O)c1cc(C(=O)O)c(NCc2ccco2)cc1Cl` [SIV-W168, 4-Chloro-2-((furan-2-ylmethyl)amino)-5-(methylcarbamoyl)benzoic Acid], the inhibition at 2.7 µM in assay [1] is 27%. Also, the half-maximal inhibitory concentration (IC50) in assay [2] (setting [4]) was > 200 µM.

With `O=C(O)c1cc(S(=O)(=O)N2CCOCC2)c(Cl)cc1NCc1ccco1` [WW049, 4-Chloro-2((furan-2-ylmethyl)amino)-5-(morpholinosulfony)benzoic Acid], the IC50 in assay [2] (setting [6]) amounted to 38.5 µM; in assay [2] (setting [4]), 41.2 ± 12.8 µM. Besides, the “Inhibition of Aβ fibrillization at concentration 100 μM, Inhibition %” value (“Inhibition of Aβ fibrillization … Inhibition %” below) in assay [3] (Example 5, versus DMSO control) is “Pro- fibrilliza- tion”.

As for `CNS(=O)(=O)c1cc(C(=O)N(C)C)c(NCc2ccco2)cc1Cl` [WW103, 4-Chloro-2-((furan-2-ylmethyl)amino)-N, N-dimethyl-5-(N-methylsulfamoyl) Benzamide], the IC50 in assay [2] (Example 5, ND = inhibition activity not detected over 200 μM, listed as SII-W103, read-out: Inhibition of Aβ oligomerization, μM IC50) was 6.5 µM and 6.56 µM. For the same molecule, the inhibition at 100 µM in assay [3] (Example 3, read-out: % inhibition of Aβ fibrillization (at 100 μ M)) is 25.2%; in assay [3] (setting [5]) it was 25.2%.

As to `CN(C)C(=O)c1cc(C(=O)O)c(NCc2ccco2)cc1Cl` [SIV-W173, 4-Chloro-5-(dimethylcarbamoyl)-2((furan-2-ylmethyl)amino)benzoic Acid], the inhibition at 2.7 µM in assay [1] came to 25%. Also, in assay [2] (setting [4]), the IC50 is > 200 µM.

Consider `Cc1ccc(CNS(=O)(=O)c2cc(C(=O)O)c(NCc3ccco3)cc2Cl)cc1` [WW065, 4-Chloro-2-((furan-2-ylmethyl)amino)-5-(N-(4-methylbenzyl)sulfamoyl) Benzoic Acid], for which the inhibition at 2.7 µM in assay [1] is 20%. In addition, the IC50 in assay [2] (setting [4]) is > 200 µM.

On to `O=C(O)c1ccc(F)cc1NCc1ccco1` [WW071, 4-Fluoro-2-((furan-2-ylmethyl)amino)benzoic Acid], for which, in assay [2] (setting [4]), the IC50 was 130 ± 25.8 µM.

In the case of `CNS(=O)(=O)c1cc(C(=O)O)c(NCc2ccco2)cc1Cl` [WW032, 4-chloro-2-((furan-2-ylmethyl)amino)-5-(N-methylsulfamoyl) Benzoic Acid], the half-inhibitory concentration (IC50) was 55.1 µM in assay [2] (setting [6]) and 53 ± 3.37 µM in assay [2] (setting [4]). Further, the “Inhibition of Aβ fibrillization … Inhibition %” value in assay [3] (Example 5, versus DMSO control) is reported as “Pro- fibrilliza- tion”.

`COC(=O)c1cc(C(=O)N2CCCCC2)c(Cl)cc1NCc1ccco1` [SIV-W160, Methyl 4-chloro-2-((furan-2-ylmethyl)amino)-5-(piperidine-1-carbonyl)benzoate]: in assay [1], the inhibition at 2.7 µM was determined as 25%.

For the molecule `O=C(O)c1cc(S(=O)(=O)NCc2ccc(C(O)C(F)(F)F)cc2)c(Cl)cc1NCc1ccco1` (stereo not drawn) [WW036, 4-Chloro-2-((furan-2-ylmethyl)amino)-5-(N-(4-(2,2,2-trifluoro-1-hydroxyethyl)benzyl)sulfamoyl)benzoic Acid], the IC50 in assay [2] (setting [4]) was determined as 68.5 ± 18.7 µM. For the same molecule, in assay [3] (Example 5, versus DMSO control), the “Inhibition of Aβ fibrillization … Inhibition %” value is listed as “Pro- fibrilliza- tion”.

Turning to `O=C(O)c1cc(C(=O)N2CCCCC2)c(Cl)cc1NCc1ccco1` [SIV-W167, 4-Chloro-2-((furan-2-ylmethyl)amino)-5-(piperidine-1-carbonyl)benzoic Acid], in assay [2] (setting [4]), the 50% inhibitory concentration (IC50) is > 200 µM.

Turning to `CCNS(=O)(=O)c1cc(C(=O)O)c(NCc2ccco2)cc1Cl` [WW057, 4-Chloro-5-(N-ethylsulfamoyl)-2-((furan-2-ylmethyl)amino) Benzoic Acid], in assay [2] (setting [4]), the IC50 came out at 137 ± 11.9 µM.

`O=C(O)c1cc(C(=O)N2CCOCC2)c(Cl)cc1NCc1ccco1` [SIV-W166, 4-Chloro-2-((furan-2-ylmethyl)amino)-5-(morpholine-4-carbonyl)benzoic acid]: the inhibition at 2.7 µM in assay [1] was 25%. Also, in assay [2] (setting [4]), the IC50 is > 200 µM.

Turning to `CN(Cc1ccccc1)S(=O)(=O)c1cc(C(=O)O)c(NCc2ccco2)cc1Cl` [WW052, 5-(N-Benzyl-N-methylsulfamoyl)-4-chloro-2-((furan-2-ylmethyl)amino) benzoic Acid], in assay [1], the inhibition at 2.7 µM stood at 24.1%. Further, the concentration for half-maximal inhibition (IC50) in assay [2] (setting [6]) amounted to 21.7 µM; in assay [2] (setting [4]) it was 21.9 ± 7.36 µM.

As to `NC(=O)c1cc(C(=O)O)c(NCc2ccco2)cc1Cl` [SIV-W164, 5-Carbamoyl-4-chloro-2((furan-2-ylmethyl)amino) Benzoic Acid], the IC50 in assay [2] (setting [4]) is > 200 µM.

Turning to `CNC(=O)c1cc(C(=O)OC)c(NCc2ccco2)cc1Cl` [SIV-W155, Methyl 4-chloro-2-((furan-2-ylmethyl)amino)-5-(methylcarbamoyl)benzoate], the inhibition at 2.7 µM in assay [1] was 20%.

In the case of `O=C(O)c1cc(S(=O)(=O)NC2CCCCC2)c(Cl)cc1NCc1ccco1` [WW082, 4-Chloro-5-(N-cyclohexylsulfamoyl)-2-((furan-2-ylmethyl)amino) Benzoic Acid], the inhibition at 2.7 µM in assay [1] is 11%. Moreover, the half-inhibitory concentration (IC50) in assay [2] (setting [4]) was determined as 116 ± 13.8 µM.

As for `COc1ccc(C(=O)O)c(NCc2ccoc2)c1` [Compound 5-LV-56A], the inhibition at 2.7 µM in assay [1] turned out to be 32%.

Consider `CNS(=O)(=O)c1cc(-c2nnn[nH]2)c(NCc2ccco2)cc1Cl` [WW121], for which, in assay [1], the inhibition at 2.7 µM amounted to 2%. Also, the half-inhibitory concentration (IC50) in assay [2] (setting [4]) came to 70.5 ± 15.7 µM.

As for `O=C(O)c1cc(S(=O)(=O)NCc2ccccc2)c(Cl)cc1NCc1ccco1` [WW035, 5-(N-benzylsulfamoyl)-4-chloro-2-((furan-2-ylmethyl)amino)benzoic Acid], the half-maximal inhibitory concentration (IC50) in assay [2] (setting [4]) is > 200 µM.

`O=C(O)c1ccc(Cl)cc1NCCc1ccccc1` [LD3-306, 4-Chloro-2-(phenethylamino)benzoic Acid]: in assay [1], the inhibition at 2.7 µM is 21%.

For `COc1ccc(CNS(=O)(=O)c2cc(C(=O)O)c(NCc3ccco3)cc2Cl)cc1` [WW063, 4-Chloro-2-((furan-2-ylmethyl)amino)-5-(N-(4-methoxybenzyl)sulfamoyl) Benzoic Acid], in assay [2] (setting [4]), the 50% inhibitory concentration (IC50) was > 200 µM.

On to `COc1c(C)ccc(CNc2cc(F)ccc2C(O)C(F)(F)F)c1OC` (stereo not drawn) [WW-028], for which the inhibition at 2.7 µM in assay [1] was determined as 19.9%.

In the case of `O=C(O)c1ccc(Br)cc1NCc1ccco1` [WW073, 4-Bromo-2-((furan-2-ylmethyl)amino) Benzoic Acid], the inhibition at 2.7 µM in assay [1] was found to be 27%. For the same molecule, the IC50 in assay [2] (setting [4]) was found to be 154 ± 33.8 µM.

For the molecule `O=C(Nc1ccccc1)c1cc(C(=O)O)c(NCc2ccco2)cc1Cl` [SIV-W179, 4-Chloro-2((furan-2-ylmethyl)amino)-5-(phenylcarbamoyl)benzoic Acid], in assay [1], the inhibition at 2.7 µM worked out at 22%. Also, the IC50 in assay [2] (setting [4]) was > 200 µM.

As for `CNS(=O)(=O)c1cc(-c2noc(=O)[nH]2)c(NCc2ccco2)cc1Cl` [WW187, 2-Chloro-4-((furan-2-ylmethyl)amino)-N-methyl-5-(5-oxo-2,5-dihydro-1,2,4-oxadiazol-3-yl)benzenesulfonamide], the inhibition at 2.7 µM in assay [1] worked out at 20%. Moreover, the IC50 in assay [2] (setting [4]) was > 200 µM.

Turning to `CCNC(=O)c1cc(C(=O)OC)c(NCc2ccco2)cc1Cl` [SIV-W172, Methyl 4-chloro-5-(ethylcarbamoyl)-2-((furan-2-ylmethyl)amino)benzoate], the inhibition at 2.7 µM in assay [1] is 18%.

Turning to `O=C(O)c1ccc(Cl)cc1NCc1ccccc1` [LD3-305, 2-(Benzylamino)-4-chlorobenzoic Acid], in assay [1], the inhibition at 2.7 µM is 30%.

Take `COC(=O)c1cc(S(N)(=O)=O)c(Cl)cc1NCc1ccco1` [WW-161]: the inhibition at 2.7 µM in assay [1] was 24%.

On to `O=C(O)c1ccc(Cl)cc1NCc1ccoc1` [LD3-310, 4-Chloro-2-((furan-3-ylmethyl)amino)benzoic Acid], for which the inhibition at 2.7 µM in assay [1] worked out at 24%.

Turning to `COc1ccc(C(=O)O)c(NCc2ccccc2)c1` [Compound 5-LV-54B, 2-(Benzylamino)-4-methoxybenzoic Acid], in assay [1], the inhibition at 2.7 µM was found to be 30%.

Turning to `O=C(O)c1cc(S(=O)(=O)NCCc2ccccc2)c(Cl)cc1NCc1ccco1` [WW056, 4-Chloro-2-((furan-2-ylmethyl)amino)-5-(N-phenethylsulfamoyl) Benzoic Acid], in assay [1], the inhibition at 2.7 µM came out at 13%. The half-maximal inhibitory concentration (IC50) in assay [2] (setting [4]) is > 200 µM.

For `COc1ccc(C(=O)O)c(NCc2ccco2)c1` [Compound 5-LV-54A], the inhibition at 2.7 µM in assay [1] was 16%.

As for `CCNC(=O)c1cc(C(=O)O)c(NCc2ccco2)cc1Cl` [SIV-W174, 4-Chloro-5-(ethylcarbamoyl)-2((furan-2-ylmethyl)amino)benzoic Acid], the inhibition at 2.7 µM in assay [1] worked out at 21%. In assay [2] (setting [4]), the IC50 is > 200 µM.

Turning to `COC(=O)c1cc(C(=O)Nc2ccccc2)c(Cl)cc1NCc1ccco1` [SIV-W178, Methyl 4-chloro-2-((furan-2-ylmethyl)amino)-5-(phenylcarbamoyl)benzoate], in assay [1], the inhibition at 2.7 µM is 12%.

Turning to `O=C(O)c1cc(S(=O)(=O)NC2CC2)c(Cl)cc1NCc1ccco1` [WW030, 4-Chloro-5-(N-cyclopropylsulfamoyl)-2-((furan-2-ylmethyl)amino)benzoic Acid], the concentration for half-maximal inhibition (IC50) in assay [2] (setting [4]) was > 200 µM.

As to `CC(NS(=O)(=O)c1cc(C(=O)O)c(NCc2ccco2)cc1Cl)c1ccccc1` (stereo not drawn) [WW053, 4-Chloro-2-((furan-2-ylmethyl)amino)-5-(N-(1-phenylethyl)sulfamoyl) benzoic Acid], the figures for the IC50 in assay [2] (setting [6]) and in assay [2] (setting [4]) were 38.5 µM and 41.1 ± 20.4 µM, respectively.
